From ChEMBL document CHEMBL4507266, “Data for DCP probe BAY-784” (2021)

Assays:
[1] = system: Tyrosine-protein kinase ABL1 (Homo sapiens), P00519 [Q252H]; conditions: Compound concentration 1000.0 nM
[2] = system: Tyrosine-protein kinase ABL1 (Homo sapiens), P00519 [Q252H]; conditions: Compound concentration 1000.0 nM; remark: listed apart in the source
[3] = molecular target: Tyrosine-protein kinase ABL2 (Homo sapiens) (UniProt P42684); conditions: Compound concentration 1000.0 nM
[4] = molecular target: Activin receptor type-2B (Homo sapiens) (UniProt Q13705); conditions: Compound concentration 1000.0 nM
[5] = molecular target: Calcium/calmodulin-dependent protein kinase type 1D (Homo sapiens) (UniProt Q8IU85); conditions: Compound concentration 1000.0 nM
[6] = molecular target: Peripheral plasma membrane protein CASK (Homo sapiens) (UniProt O14936); conditions: Compound concentration 1000.0 nM
[7] = molecular target: Cyclin-dependent kinase 7 (Homo sapiens) (UniProt P50613); conditions: Compound concentration 1000.0 nM
Chain of Cyclin-dependent kinase 7 (Homo sapiens) (P50613 whole entry): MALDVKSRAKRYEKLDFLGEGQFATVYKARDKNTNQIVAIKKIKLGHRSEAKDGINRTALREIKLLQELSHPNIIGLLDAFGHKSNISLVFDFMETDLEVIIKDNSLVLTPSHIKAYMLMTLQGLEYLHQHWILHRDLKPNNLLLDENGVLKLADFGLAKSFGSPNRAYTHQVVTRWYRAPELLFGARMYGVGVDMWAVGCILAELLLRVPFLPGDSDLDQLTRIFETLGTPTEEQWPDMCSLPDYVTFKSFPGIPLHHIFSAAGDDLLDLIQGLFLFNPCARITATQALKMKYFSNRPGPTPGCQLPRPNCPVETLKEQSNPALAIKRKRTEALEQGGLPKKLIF

[8] = molecular target: Myotonin-protein kinase (Homo sapiens) (UniProt Q09013); conditions: Compound concentration 1000.0 nM
[9] = molecular target: Dual specificity tyrosine-phosphorylation-regulated kinase 1A (Homo sapiens) (UniProt Q13627); conditions: Compound concentration 1000.0 nM
[10] = system: Epidermal growth factor receptor (Homo sapiens), P00533 [UNDEFINED MUTATION]; conditions: Compound concentration 1000.0 nM
[11] = system: Epidermal growth factor receptor (Homo sapiens), P00533 [UNDEFINED MUTATION]; conditions: Compound concentration 1000.0 nM; remark: listed apart in the source
[12] = system: Epidermal growth factor receptor (Homo sapiens), P00533 [T790M]; conditions: Compound concentration 1000.0 nM
[13] = molecular target: Ephrin type-B receptor 4 (Homo sapiens) (UniProt P54760); conditions: Compound concentration 1000.0 nM
[14] = molecular target: Glycogen synthase kinase-3 alpha (Homo sapiens) (UniProt P49840); conditions: Compound concentration 1000.0 nM
[15] = molecular target: Insulin-like growth factor 1 receptor (Homo sapiens) (UniProt P08069); conditions: Compound concentration 1000.0 nM
[16] = molecular target: Tyrosine-protein kinase ITK/TSK (Homo sapiens) (UniProt Q08881); conditions: Compound concentration 1000.0 nM
[17] = system: Mast/stem cell growth factor receptor Kit (Homo sapiens), P10721 [D816V]; conditions: Compound concentration 1000.0 nM
[18] = molecular target: Mitogen-activated protein kinase kinase kinase kinase 3 (Homo sapiens) (UniProt Q8IVH8); conditions: Compound concentration 1000.0 nM
Chain of Mitogen-activated protein kinase kinase kinase kinase 3 (Homo sapiens) (Q8IVH8 whole entry): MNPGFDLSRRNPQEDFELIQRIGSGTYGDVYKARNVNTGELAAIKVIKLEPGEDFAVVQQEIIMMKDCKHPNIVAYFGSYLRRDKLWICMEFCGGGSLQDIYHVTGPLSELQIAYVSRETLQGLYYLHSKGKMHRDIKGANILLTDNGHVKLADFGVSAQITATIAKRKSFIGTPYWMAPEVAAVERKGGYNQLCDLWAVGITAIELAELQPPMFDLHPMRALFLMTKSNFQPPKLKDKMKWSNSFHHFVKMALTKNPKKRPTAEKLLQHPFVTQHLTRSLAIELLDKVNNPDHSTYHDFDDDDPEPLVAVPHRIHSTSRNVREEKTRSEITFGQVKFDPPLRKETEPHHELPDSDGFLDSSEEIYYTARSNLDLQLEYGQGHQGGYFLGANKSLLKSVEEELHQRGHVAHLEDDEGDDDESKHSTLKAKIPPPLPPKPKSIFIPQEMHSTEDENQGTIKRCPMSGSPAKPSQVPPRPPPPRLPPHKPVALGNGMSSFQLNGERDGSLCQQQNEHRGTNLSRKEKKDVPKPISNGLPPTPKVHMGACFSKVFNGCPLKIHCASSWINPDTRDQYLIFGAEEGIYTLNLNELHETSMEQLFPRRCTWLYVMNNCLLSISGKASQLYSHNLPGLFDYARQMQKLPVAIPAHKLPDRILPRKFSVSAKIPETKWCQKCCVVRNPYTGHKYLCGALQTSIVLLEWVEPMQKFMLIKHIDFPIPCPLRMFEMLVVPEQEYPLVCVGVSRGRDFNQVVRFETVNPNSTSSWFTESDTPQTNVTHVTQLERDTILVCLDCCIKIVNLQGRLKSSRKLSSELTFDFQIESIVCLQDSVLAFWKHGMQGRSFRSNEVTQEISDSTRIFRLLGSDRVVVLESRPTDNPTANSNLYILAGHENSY

[19] = molecular target: MAP/microtubule affinity-regulating kinase 4 (Homo sapiens) (UniProt Q96L34); conditions: Compound concentration 1000.0 nM
Chain of MAP/microtubule affinity-regulating kinase 4 (Homo sapiens) (Q96L34 whole entry): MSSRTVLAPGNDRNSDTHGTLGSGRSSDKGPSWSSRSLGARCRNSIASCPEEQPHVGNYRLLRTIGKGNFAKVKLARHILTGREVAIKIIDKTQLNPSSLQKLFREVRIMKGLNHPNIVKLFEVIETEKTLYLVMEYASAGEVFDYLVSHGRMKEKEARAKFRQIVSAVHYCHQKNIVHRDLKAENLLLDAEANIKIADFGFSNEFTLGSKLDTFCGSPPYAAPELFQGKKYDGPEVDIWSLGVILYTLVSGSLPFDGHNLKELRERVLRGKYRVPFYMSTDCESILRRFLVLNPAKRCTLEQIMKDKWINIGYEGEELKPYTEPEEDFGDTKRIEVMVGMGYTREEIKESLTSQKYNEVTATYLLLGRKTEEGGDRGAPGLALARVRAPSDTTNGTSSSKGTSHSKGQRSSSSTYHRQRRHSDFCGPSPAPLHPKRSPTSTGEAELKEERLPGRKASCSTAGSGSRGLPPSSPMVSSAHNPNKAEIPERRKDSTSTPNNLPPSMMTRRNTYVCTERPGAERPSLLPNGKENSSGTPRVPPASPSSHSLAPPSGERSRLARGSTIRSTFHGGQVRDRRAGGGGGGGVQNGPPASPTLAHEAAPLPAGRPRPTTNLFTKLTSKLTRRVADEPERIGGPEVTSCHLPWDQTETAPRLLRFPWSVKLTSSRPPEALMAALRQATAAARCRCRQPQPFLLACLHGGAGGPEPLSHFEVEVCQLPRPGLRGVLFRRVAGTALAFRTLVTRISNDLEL

[20] = molecular target: Dual specificity mitogen-activated protein kinase kinase 6 (Homo sapiens) (UniProt P52564); conditions: Compound concentration 1000.0 nM
[21] = molecular target: Serine/threonine-protein kinase MRCK alpha (Homo sapiens) (UniProt Q5VT25); conditions: Compound concentration 1000.0 nM
Chain of Serine/threonine-protein kinase MRCK alpha (Homo sapiens) (Q5VT25 whole entry): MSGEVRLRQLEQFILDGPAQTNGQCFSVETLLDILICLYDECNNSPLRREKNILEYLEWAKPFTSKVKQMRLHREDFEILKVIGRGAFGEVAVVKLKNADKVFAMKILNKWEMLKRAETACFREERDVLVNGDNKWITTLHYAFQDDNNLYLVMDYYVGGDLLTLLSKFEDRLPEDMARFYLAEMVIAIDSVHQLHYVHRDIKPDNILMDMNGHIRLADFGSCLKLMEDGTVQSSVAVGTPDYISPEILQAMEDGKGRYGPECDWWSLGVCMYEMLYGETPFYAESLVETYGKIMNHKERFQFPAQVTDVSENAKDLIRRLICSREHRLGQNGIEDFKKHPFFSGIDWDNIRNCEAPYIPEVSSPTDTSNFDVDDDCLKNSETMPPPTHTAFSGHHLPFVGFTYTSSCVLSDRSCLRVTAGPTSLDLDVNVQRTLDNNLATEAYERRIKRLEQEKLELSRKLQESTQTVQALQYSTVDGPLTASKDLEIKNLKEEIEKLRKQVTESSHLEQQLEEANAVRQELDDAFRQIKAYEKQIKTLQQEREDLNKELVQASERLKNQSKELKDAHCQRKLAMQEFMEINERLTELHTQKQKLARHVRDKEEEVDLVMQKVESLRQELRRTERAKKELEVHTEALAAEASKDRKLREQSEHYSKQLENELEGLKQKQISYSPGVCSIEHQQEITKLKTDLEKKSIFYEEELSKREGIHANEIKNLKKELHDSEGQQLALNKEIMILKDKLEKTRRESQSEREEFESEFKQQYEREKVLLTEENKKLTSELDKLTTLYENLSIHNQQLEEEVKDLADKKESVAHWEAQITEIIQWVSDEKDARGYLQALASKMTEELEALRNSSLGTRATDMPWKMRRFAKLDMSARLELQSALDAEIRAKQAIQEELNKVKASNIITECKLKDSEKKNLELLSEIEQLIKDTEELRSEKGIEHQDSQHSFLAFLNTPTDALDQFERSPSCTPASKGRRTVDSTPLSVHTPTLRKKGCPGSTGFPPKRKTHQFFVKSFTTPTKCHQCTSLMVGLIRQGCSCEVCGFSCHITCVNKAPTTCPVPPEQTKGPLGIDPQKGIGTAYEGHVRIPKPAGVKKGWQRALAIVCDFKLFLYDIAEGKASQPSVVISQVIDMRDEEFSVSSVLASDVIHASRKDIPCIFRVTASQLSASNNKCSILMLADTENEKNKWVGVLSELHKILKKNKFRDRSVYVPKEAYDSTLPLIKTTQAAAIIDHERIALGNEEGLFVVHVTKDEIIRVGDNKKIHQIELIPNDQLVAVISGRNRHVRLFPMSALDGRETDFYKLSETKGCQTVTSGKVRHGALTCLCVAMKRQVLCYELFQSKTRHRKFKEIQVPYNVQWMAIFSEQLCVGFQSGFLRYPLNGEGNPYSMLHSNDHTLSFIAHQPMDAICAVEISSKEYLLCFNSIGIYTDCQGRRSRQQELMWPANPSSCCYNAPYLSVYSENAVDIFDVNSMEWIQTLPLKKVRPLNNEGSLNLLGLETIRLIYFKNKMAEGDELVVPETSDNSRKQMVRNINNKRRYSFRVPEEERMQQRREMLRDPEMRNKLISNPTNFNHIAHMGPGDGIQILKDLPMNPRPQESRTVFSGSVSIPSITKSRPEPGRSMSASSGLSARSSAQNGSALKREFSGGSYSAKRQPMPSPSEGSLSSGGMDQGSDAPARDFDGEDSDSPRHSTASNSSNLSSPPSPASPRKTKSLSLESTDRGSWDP

[22] = molecular target: Serine/threonine-protein kinase 4 (Homo sapiens) (UniProt Q13043); conditions: Compound concentration 1000.0 nM
[23] = molecular target: Serine/threonine-protein kinase 3 (Homo sapiens) (UniProt Q13188); conditions: Compound concentration 1000.0 nM
[24] = molecular target: Serine/threonine-protein kinase 26 (Homo sapiens) (UniProt Q9P289); conditions: Compound concentration 1000.0 nM
[25] = molecular target: Serine/threonine-protein kinase PAK 2 (Homo sapiens) (UniProt Q13177); conditions: Compound concentration 1000.0 nM
[26] = molecular target: Cyclin-dependent kinase 16 (Homo sapiens) (UniProt Q00536); conditions: Compound concentration 1000.0 nM
[27] = molecular target: Cyclin-dependent kinase 17 (Homo sapiens) (UniProt Q00537); conditions: Compound concentration 1000.0 nM
[28] = system: Phosphatidylinositol 4,5-bisphosphate 3-kinase catalytic subunit alpha isoform (Homo sapiens), P42336 [E542K]; conditions: Compound concentration 1000.0 nM
[29] = molecular target: Serine/threonine-protein kinase pim-1 (Homo sapiens) (UniProt P11309); conditions: Compound concentration 1000.0 nM
Chain of Serine/threonine-protein kinase pim-1 (Homo sapiens) (P11309 whole entry, looked up): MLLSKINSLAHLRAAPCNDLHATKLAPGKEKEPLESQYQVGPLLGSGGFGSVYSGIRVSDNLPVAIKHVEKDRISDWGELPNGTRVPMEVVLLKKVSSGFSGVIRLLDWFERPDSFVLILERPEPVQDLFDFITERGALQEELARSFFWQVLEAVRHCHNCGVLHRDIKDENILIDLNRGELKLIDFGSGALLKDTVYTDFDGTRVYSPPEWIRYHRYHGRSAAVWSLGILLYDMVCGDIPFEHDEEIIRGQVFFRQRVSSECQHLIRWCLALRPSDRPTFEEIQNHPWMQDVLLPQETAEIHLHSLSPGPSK

[30] = molecular target: Phosphatidylinositol 4-phosphate 5-kinase type-1 gamma (Homo sapiens) (UniProt O60331); conditions: Compound concentration 1000.0 nM
[31] = molecular target: Serine/threonine-protein kinase D3 (Homo sapiens) (UniProt O94806); conditions: Compound concentration 1000.0 nM
[32] = molecular target: Serine/threonine-protein kinase PRP4 homolog (Homo sapiens) (UniProt Q13523); conditions: Compound concentration 1000.0 nM
Chain of Serine/threonine-protein kinase PRP4 homolog (Homo sapiens) (Q13523 whole entry): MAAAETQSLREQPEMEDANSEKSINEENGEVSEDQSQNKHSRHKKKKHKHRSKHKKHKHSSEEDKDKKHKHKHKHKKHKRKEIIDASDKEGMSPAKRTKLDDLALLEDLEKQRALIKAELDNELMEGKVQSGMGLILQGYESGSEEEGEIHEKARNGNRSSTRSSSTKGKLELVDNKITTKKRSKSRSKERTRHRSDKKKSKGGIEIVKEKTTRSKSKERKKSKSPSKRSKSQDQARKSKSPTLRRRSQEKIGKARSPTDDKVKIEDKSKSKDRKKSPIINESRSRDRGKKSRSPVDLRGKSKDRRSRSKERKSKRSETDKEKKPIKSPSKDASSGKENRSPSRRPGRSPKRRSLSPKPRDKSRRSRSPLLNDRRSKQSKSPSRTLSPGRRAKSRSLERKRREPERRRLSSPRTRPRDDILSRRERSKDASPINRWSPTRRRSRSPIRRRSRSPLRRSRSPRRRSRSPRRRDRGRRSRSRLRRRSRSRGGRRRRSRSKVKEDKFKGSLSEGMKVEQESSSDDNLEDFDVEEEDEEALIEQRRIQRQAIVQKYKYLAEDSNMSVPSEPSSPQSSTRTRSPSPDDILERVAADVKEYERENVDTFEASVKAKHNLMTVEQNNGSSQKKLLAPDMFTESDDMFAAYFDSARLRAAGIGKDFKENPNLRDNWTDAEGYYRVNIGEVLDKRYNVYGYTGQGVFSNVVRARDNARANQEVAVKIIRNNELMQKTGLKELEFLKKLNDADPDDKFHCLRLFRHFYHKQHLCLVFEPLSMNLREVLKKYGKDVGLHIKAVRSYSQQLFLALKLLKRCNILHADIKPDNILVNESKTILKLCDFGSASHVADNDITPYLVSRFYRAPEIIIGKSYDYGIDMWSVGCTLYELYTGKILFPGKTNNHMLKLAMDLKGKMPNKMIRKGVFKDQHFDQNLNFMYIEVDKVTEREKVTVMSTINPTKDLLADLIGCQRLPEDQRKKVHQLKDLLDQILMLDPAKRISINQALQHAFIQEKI

[33] = molecular target: Ribosomal protein S6 kinase alpha-6 (Homo sapiens) (UniProt Q9UK32); conditions: Compound concentration 1000.0 nM
[34] = molecular target: Serine/threonine-protein kinase Sgk1 (Homo sapiens) (UniProt O00141); conditions: Compound concentration 1000.0 nM
[35] = molecular target: SRSF protein kinase 2 (Homo sapiens) (UniProt P78362); conditions: Compound concentration 1000.0 nM
[36] = molecular target: Serine/threonine-protein kinase 36 (Homo sapiens) (UniProt Q9NRP7); conditions: Compound concentration 1000.0 nM
[37] = molecular target: Serine/threonine-protein kinase 32A (Homo sapiens) (UniProt Q8WU08); conditions: Compound concentration 1000.0 nM
[38] = molecular target: T1, D(4) dopamine receptor (Homo sapiens) (UniProt P21917); conditions: Compound concentration 10.0 uM
T1 sequence (whole entry): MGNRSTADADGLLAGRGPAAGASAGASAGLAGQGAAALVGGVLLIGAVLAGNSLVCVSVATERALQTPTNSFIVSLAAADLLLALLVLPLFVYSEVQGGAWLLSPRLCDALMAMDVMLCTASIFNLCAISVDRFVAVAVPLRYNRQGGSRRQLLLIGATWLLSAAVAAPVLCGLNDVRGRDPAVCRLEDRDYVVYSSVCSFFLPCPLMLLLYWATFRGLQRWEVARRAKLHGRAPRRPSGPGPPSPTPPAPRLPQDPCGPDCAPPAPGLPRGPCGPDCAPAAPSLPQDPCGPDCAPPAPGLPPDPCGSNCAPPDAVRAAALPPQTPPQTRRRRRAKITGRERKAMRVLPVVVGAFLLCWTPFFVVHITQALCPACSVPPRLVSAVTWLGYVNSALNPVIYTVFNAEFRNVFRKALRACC

[39] = molecular target: D(1B) dopamine receptor (Homo sapiens) (UniProt P21918); conditions: Compound concentration 10.0 uM

O=C(NCc1ncc(C(F)(F)F)cc1Cl)c1ccc2c(c1)C1(CCS(=O)(=O)CC1)[C@@H](C1CC1)N2S(=O)(=O)c1ccc(F)cc1 [BAY-786]
inactive: residual activity [1] 100% | residual activity [2] 87% | residual activity [3] 100% | residual activity [4] 100% | residual activity [5] 99% | residual activity [6] 64% | residual activity [7] 56% | residual activity [8] 86% | residual activity [9] 85% | residual activity [10] 69% | residual activity [11] 79% | residual activity [12] 100% | residual activity [13] 94% | residual activity [14] 100% | residual activity [15] 88% | residual activity [16] 100% | residual activity [17] 89% | residual activity [18] 100% | residual activity [19] 100% | residual activity [20] 100% | residual activity [21] 100% | residual activity [22] 86% | residual activity [23] 87% | residual activity [24] 82% | residual activity [25] 84% | residual activity [26] 80% | residual activity [27] 99% | residual activity [28] 82% | residual activity [29] 74% | residual activity [30] 94% | residual activity [31] 100% | residual activity [32] 84% | residual activity [33] 84% | residual activity [34] 77% | residual activity [35] 100% | residual activity [36] 100% | residual activity [37] 99% | inhibition [38] -5.22% | inhibition [39] -0.49%

O=C(NCc1ncc(C(F)(F)F)cc1Cl)c1ccc2c(c1)C1(CCS(=O)(=O)CC1)[C@H](C1CC1)N2S(=O)(=O)c1ccc(F)cc1 [BAY-784]
inactive: residual activity [1] 100% | residual activity [2] 70% | residual activity [3] 100% | residual activity [4] 90% | residual activity [5] 85% | residual activity [6] 75% | residual activity [7] 64% | residual activity [8] 93% | residual activity [9] 88% | residual activity [10] 97% | residual activity [11] 100% | residual activity [12] 100% | residual activity [13] 100% | residual activity [14] 100% | residual activity [15] 100% | residual activity [16] 100% | residual activity [17] 100% | residual activity [18] 100% | residual activity [19] 100% | residual activity [20] 100% | residual activity [21] 100% | residual activity [22] 87% | residual activity [23] 100% | residual activity [24] 100% | residual activity [25] 100% | residual activity [26] 100% | residual activity [27] 100% | residual activity [28] 94% | residual activity [29] 100% | residual activity [30] 100% | residual activity [31] 100% | residual activity [32] 100% | residual activity [33] 78% | residual activity [34] 79% | residual activity [35] 91% | residual activity [36] 100% | residual activity [37] 100% | inhibition [38] 1.57% | inhibition [39] 19.1%
